Data published in patent publication US9896481B2, “Modified mini-hepcidin peptides and methods of using thereof” (priority 2011, dated 2018).
Starred links: 1 amine or outer side, 2 acyl side, 3 side chain; linkers in the order of their positions; H or OH if unused. Positions of bridges follow the written chain, without caps; N, C: chain ends. Non-standard residues stand in square brackets, D forms with d. Residues, ends and D or L forms follow the SMILES beside them. *: point of attachment. PEG12 = NCCOCCOCCOCCOCCOCCOCCOCCOCCOCCOCCOCCOCCC(=O)O; X1 = O=C(C[C@H](N[*:1])C(c1ccccc1)c1ccccc1)[*:2]; dDip = N[C@@H](C(=O)O)C(c1ccccc1)c1ccccc1; Oic = O=C(O)[C@@H]1C[C@@H]2CCCC[C@@H]2N1; Dip = N[C@H](C(=O)O)C(c1ccccc1)c1ccccc1; Palmitoyl = CCCCCCCCCCCCCCCC(=O)*; X2 = O=C(C1CCC(CN[*:1])CC1)[*:2]; Cysteamide = C(CS[*:3])N[*:1]; Chg = N[C@H](C(=O)O)C1CCCCC1; Phg = N[C@H](C(=O)O)c1ccccc1; Tle = CC(C)(C)[C@H](N)C(=O)O; Inp = O=C(O)C1CCNCC1

What follows are compounds tested against T1, ferroportin tagged at the C-terminus with green fluorescent protein (Fpn-GFP) (Mus musculus, UniProt Q9JHI9) (assay: Flow cytometry of ferroportin-GFP degradation in ECR293/Fpn-GFP cells). Conditions: Table 1; 24 h peptide treatment; 50% of maximal loss of fluorescence by Hep25; read-out: EC50.
T1 construct: expressed in transfected cells; host or cells: ECR293/Fpn-GFP (stably transfected, ponasterone-inducible)
T1 sequence (Q9JHI9 1-570): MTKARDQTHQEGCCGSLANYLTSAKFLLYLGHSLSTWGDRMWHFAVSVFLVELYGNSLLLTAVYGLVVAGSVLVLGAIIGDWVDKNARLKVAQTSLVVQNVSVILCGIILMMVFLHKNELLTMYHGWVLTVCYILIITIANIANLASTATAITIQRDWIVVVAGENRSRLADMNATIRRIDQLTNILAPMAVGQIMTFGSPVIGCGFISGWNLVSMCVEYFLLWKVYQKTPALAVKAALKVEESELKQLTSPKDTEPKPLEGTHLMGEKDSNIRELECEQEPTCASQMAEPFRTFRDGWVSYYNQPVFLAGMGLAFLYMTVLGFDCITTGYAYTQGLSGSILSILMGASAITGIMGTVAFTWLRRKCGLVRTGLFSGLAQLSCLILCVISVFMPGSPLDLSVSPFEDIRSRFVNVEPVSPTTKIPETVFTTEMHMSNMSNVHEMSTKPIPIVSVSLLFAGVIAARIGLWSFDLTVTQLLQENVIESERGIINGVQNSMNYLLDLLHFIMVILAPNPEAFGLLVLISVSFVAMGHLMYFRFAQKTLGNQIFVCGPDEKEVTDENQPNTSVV
Assay type: cell-based
Experimental: In vitro activity may be measured by the dose-dependent loss of fluorescence of cells engineered to display ferroportin fused to green fluorescent protein as in Nemeth et al. (2006) Blood 107:328-33. Aliquots of cells are incubated for 24 hours with graded concentrations of a reference preparation of Hep25 or a mini-hepcidin. As provided herein, the EC50 values are provided as the concentration of a given compound (e.g. peptide) that elicits 50% of the maximal loss of fluorescence generated by the reference Hep25 preparation.
Mutational studies indicate that C326, the cysteine residue at position 326 of human ferroportin, is the critical residue involved in binding hepcidin. Thus, various N-terminal fragments of Hep25 containing a thiol, i.e. Hep 4-7, Hep3-7, Hep3-8, Hep3-9, Hep1-7, Hep1-8, Hep1-9, and Hep1-10 C7A, were chemically synthesized, refolded and their activities relative to Hep25 were assayed using flow-cytometric quantitation of the ferroportin-GFP degradation, iron efflux estimation based on measurements of cellular ferritin, and radioisotopic iron efflux studies.
The activity of peptides of the present invention was measured by flow cytometry as previously described. See Nemeth et al. (2006) Blood 107:328-333, which is herein incorporated by reference. ECR293/Fpn-GFP, a cell line stably transfected with a ponasterone-inducible ferroportin construct tagged at the C-terminus with green fluorescent protein was used. See Nemeth et al. (2004) Science 306:2090-2093, which is herein incorporated by reference. Briefly, the cells were plated on poly-D-lysine coated plates in the presence of 20 μM FAC, with or without 10 μM ponasterone. After 24 hours, ponasterone was washed off, and cells were treated with peptides for 24 hours. Cells were then trypsinized and resuspended at 1×10^6 cells/ml, and the intensity of green fluorescence was analyzed by flow cytometry. Flow cytometry was performed on FAC SCAN (fluorescence activated cell scanner) Analytic Flow Cytometer (Becton Dickinson, San Jose, Calif.) with […] version 3.3 software (Becton Dickinson). Cells not induced with ponasterone to express Fpn-GFP were used to establish a gate to exclude background fluorescence. Cells induced with ponasterone, but not treated with any peptides, were used as the positive control. Each peptide was tested over the range of concentrations (0, 0.01, 0.03, 0.1, 0.3, 1, 3 and 10 μM). Each peptide treatment was repeated independently 3 to 6 times. For each concentration of peptide, the results were expressed as a fraction of the maximal activity (FHep25) of Hep25 (in the dose range 0.01-10 μM), according to the formula 1−((Fx−FHep25)/(Funtreated−FHep25)), where F was the mean of the gated green fluorescence and x was the peptide.

Row | Structure (SMILES) | EC50 [nM]
1 | CC[C@H](C)[C@H](NC(=O)[C@@H]1CSSC[C@H](N)C(=O)N[C@@H](CC(=O)O)C(=O)N[C@@H]([C@@H](C)O)C(=O)N[C@@H](Cc2c[nH]cn2)C(=O)N[C@@H](Cc2ccccc2)C(=O)N2CCC[C@H]2C(=O)N[C@@H]([C@@H](C)CC)C(=O)N1)C(=O)N[C@@H](Cc1ccccc1)C(N)=O [Cyc-1] (H-CDTHFPICIF-NH2; disulfide 1-8; N-terminus assumed) | 300
2 | C[C@@H](O)[C@H](NC(=O)[C@@H](N)CC(=O)O)C(=O)N[C@@H](Cc1c[nH]cn1)C(=O)N[C@H](C(=O)N1CCC[C@H]1C(=O)N[C@@H](CS)C(=O)N[C@@H](CS)C(=O)N[C@@H](CS)C(=O)N[C@H](C(N)=O)C(c1ccccc1)c1ccccc1)C(c1ccccc1)c1ccccc1 [PR46] (H-DTH[Dip]PCCC[Dip]-NH2; N-terminus assumed) | 80

Same assay, conditions: Table 1; 24 h peptide treatment; 50% of maximal loss of fluorescence by Hep25; read-out: EC50 (the source's name)

Row | DC50 [nM] | Structure (SMILES)
3 | 80 | CC[C@H](C)[C@H](NC(=O)[C@H](CS)NC(=O)[C@@H](NC(=O)[C@@H]1CCCN1C(=O)C[C@H](NC(=O)[C@H](Cc1c[nH]cn1)NC(=O)[C@@H](NC(=O)[C@@H](N)CC(=O)O)[C@@H](C)O)C(c1ccccc1)c1ccccc1)[C@@H](C)CC)C(=O)N[C@@H](Cc1ccccc1)C(N)=O [F4bhDpa] (H-DTH[X1]PICIF-NH2; N-terminus assumed)
4 | > 3000 | CC(C)(C)[C@H](NC(=O)[C@@H](N)CC(=O)O)C(=O)N[C@@H](Cc1c[nH]cn1)C(=O)N[C@H](C(=O)N1[C@H](C(=O)N[C@H](C(=O)N[C@@H](CS)C(=O)N[C@H](C(=O)N[C@@H](Cc2ccccc2)C(N)=O)C2CCCCC2)C2CCCCC2)C[C@@H]2CCCC[C@@H]21)c1ccccc1 [PR10] (H-D[Tle]H[Phg][Oic][Chg]C[Chg]F-NH2)
5 | > 3000 | CC(C)(C)[C@H](NC(=O)[C@@H](N)CC(=O)O)C(=O)N[C@@H](Cc1c[nH]cn1)C(=O)N1CCC[C@H]1C(=O)N1[C@H](C(=O)N[C@H](C(=O)N[C@@H](CS)C(=O)N[C@H](C(=O)N[C@@H](Cc2ccccc2)C(N)=O)C2CCCCC2)C2CCCCC2)C[C@@H]2CCCC[C@@H]21 [PR11] (H-D[Tle]HP[Oic][Chg]C[Chg]F-NH2)

Same assay, conditions: read-out: EC50

Row | Structure (SMILES) | EC50 [nM]
6 | N=C(N)NCCC[C@@H]1NC(=O)C2CCC(CC2)CNC(=O)[C@@H](C(c2ccccc2)c2ccccc2)NC(=O)C2CCN(CC2)C(=O)[C@@H](N)CSSCCNC(=O)[C@H](C(c2ccccc2)c2ccccc2)NC(=O)C2CCN(CC2)C(=O)C2CCC(CC2)CNC1=O [PR-1] | 1500
7 | N=C(N)NCCC[C@@H]1NC(=O)C2CCC(CC2)CNC(=O)[C@@H](C(c2ccccc2)c2ccccc2)NC(=O)[C@@H]2CCCN2C(=O)[C@@H](N)CSSCCNC(=O)[C@H](C(c2ccccc2)c2ccccc2)NC(=O)C2CCN(CC2)C(=O)C2CCC(CC2)CNC1=O [PR-2] (H-CP[dDip][X2]R[X2][Inp][Dip]-Cysteamide; disulfide 1-C) | 2000
8 | N=C(N)NCCC[C@@H]1NC(=O)C2CCC(CC2)CNC(=O)[C@@H](C(c2ccccc2)c2ccccc2)NC(=O)[C@H]2CCCN2C(=O)[C@@H](N)CSSCCNC(=O)[C@H](C(c2ccccc2)c2ccccc2)NC(=O)C2CCN(CC2)C(=O)C2CCC(CC2)CNC1=O [PR-3] (H-C[dP][dDip][X2]R[X2][Inp][Dip]-Cysteamide; disulfide 1-C) | 1000
9 | N=C(N)NCCC[C@@H]1NC(=O)C2CCC(CC2)CNC(=O)[C@@H](C(c2ccccc2)c2ccccc2)NC(=O)CNC(=O)[C@@H](N)CSSCCNC(=O)[C@H](C(c2ccccc2)c2ccccc2)NC(=O)C2CCN(CC2)C(=O)C2CCC(CC2)CNC1=O [PR-4] (H-CG[dDip][X2]R[X2][Inp][Dip]-Cysteamide; disulfide 1-C) | 2000

Same assay, conditions: read-out: EC50 (nM) in vitro; Table 3

Row | Structure (SMILES) | EC50 [nM]
10 | CCCCCCCCCCCCCCCC(=O)NCCOCCOCCOCCOCCOCCOCCOCCOCCOCCOCCOCCOCCC(=O)N[C@H](Cc1ccccc1)C(=O)N[C@@H](C(=O)N[C@H](CS)C(=O)N[C@@H](C(=O)N1CCC[C@@H]1C(=O)N[C@@H](C(=O)N[C@H](Cc1c[nH]cn1)C(=O)N[C@@H](C(=O)N[C@H](CC(=O)O)C(N)=O)[C@H](C)O)C(c1ccccc1)c1ccccc1)[C@H](C)CC)[C@H](C)CC [PR47, R4-F-I-C-I-P-Dpa-H-T-D] ({Palmitoyl-PEG12}-[dF][dI][dC][dI][dP][dDip][dH][dT][dD]-NH2) | 50
11 | CCCCCCCCCCCCCCCC(=O)NCCOCCOCCOCCOCCOCCOCCOCCOCCOCCOCCOCCOCCC(=O)N[C@@H](C(=O)N[C@@H](C(=O)N[C@H](CS)C(=O)N[C@@H](C(=O)N1CCC[C@@H]1C(=O)N[C@@H](C(=O)N[C@H](Cc1c[nH]cn1)C(=O)N[C@@H](C(=O)N[C@H](CC(=O)O)C(N)=O)[C@H](C)O)C(c1ccccc1)c1ccccc1)[C@H](C)CC)[C@H](C)CC)C(c1ccccc1)c1ccccc1 [PR48, R4-Dpa-I-C-I-P-Dpa-H-T-D] ({Palmitoyl-PEG12}-[dDip][dI][dC][dI][dP][dDip][dH][dT][dD]-NH2) | 50
12 | CCCCCCCCCCCCCCCC(=O)NCCOCCOCCOCCOCCOCCOCCOCCOCCOCCOCCOCCOCCC(=O)N[C@H](Cc1ccccc1)C(=O)N[C@@H](C(=O)N[C@H](CS)C(=O)N[C@@H](C(=O)N1CCC[C@@H]1C(=O)N[C@@H](C(=O)N[C@H](Cc1c[nH]cn1)C(N)=O)C(c1ccccc1)c1ccccc1)[C@H](C)CC)[C@H](C)CC [PR49, R4-F-I-C-I-P-Dpa-H] ({Palmitoyl-PEG12}-[dF][dI][dC][dI][dP][dDip][dH]-NH2) | < 10
13 | CCCCCCCCCCCCCCCC(=O)NCCOCCOCCOCCOCCOCCOCCOCCOCCOCCOCCOCCOCCC(=O)N[C@@H](C(=O)N[C@@H](C(=O)N[C@H](CS)C(=O)N[C@@H](C(=O)N1CCC[C@@H]1C(=O)N[C@@H](C(=O)N[C@H](Cc1c[nH]cn1)C(N)=O)C(c1ccccc1)c1ccccc1)[C@H](C)CC)[C@H](C)CC)C(c1ccccc1)c1ccccc1 [PR50, R4-Dpa-I-C-I-P-Dpa-H] ({Palmitoyl-PEG12}-[dDip][dI][dC][dI][dP][dDip][dH]-NH2) | < 10
14 | CCCCCCCCCCCCCCCC(=O)NCCOCCOCCOCCOCCOCCOCCOCCOCCOCCOCCOCCOCCC(=O)N[C@H](Cc1ccccc1)C(=O)N[C@@H](C(=O)N[C@H](CS)C(=O)N[C@@H](C(=O)N1CCC[C@@H]1C(=O)N[C@@H](C(=O)N[C@H](Cc1c[nH]cn1)C(=O)N[C@@H](C(=O)N[C@H](CC(=O)O)C(N)=O)[C@H](C)O)C(c1ccccc1)c1ccccc1)C(C)C)C(C)C [PR51, R4-F-V-C-V-P-Dpa-H-T-D] ({Palmitoyl-PEG12}-[dF][dV][dC][dV][dP][dDip][dH][dT][dD]-NH2) | 100
15 | CCCCCCCCCCCCCCCC(=O)NCCOCCOCCOCCOCCOCCOCCOCCOCCOCCOCCOCCOCCC(=O)N[C@H](Cc1ccccc1)C(=O)N[C@H](CC(C)C)C(=O)N[C@H](CS)C(=O)N[C@H](CC(C)C)C(=O)N1CCC[C@@H]1C(=O)N[C@@H](C(=O)N[C@H](Cc1c[nH]cn1)C(=O)N[C@@H](C(=O)N[C@H](CC(=O)O)C(N)=O)[C@H](C)O)C(c1ccccc1)c1ccccc1 [PR52, R4-F-L-C-L-P-Dpa-H-T-D] ({Palmitoyl-PEG12}-[dF][dL][dC][dL][dP][dDip][dH][dT][dD]-NH2) | < 10

Same assay, conditions: read-out: EC50; Table 1; 24 h peptide treatment; 50% of maximal loss of fluorescence by Hep25

Row | Structure (SMILES) | EC50 [nM]
16 | CC[C@H](C)[C@H](NC(=O)[C@H](CS)NC(=O)[C@@H](NC(=O)[C@@H]1CCCN1C(=O)[C@@H](NC(=O)[C@@H](N)CC(=O)O)C(c1ccccc1)c1ccccc1)[C@@H](C)CC)C(=O)N[C@@H](Cc1ccccc1)C(N)=O [PR40] (H-D[Dip]PICIF-NH2) | 70
